Source: patent US8686002B2, “Heterocyclic compounds and their use as binding partners for 5-HT5 receptors” (AbbVie Deutschland GmbH & Co. KG, priority 2005, dated 2014)
Counter-ions that a name gives are not always drawn.

Target: 5-HT5A (Homo sapiens, UniProt P47898)
Experiment: Affinity of selected compounds for 5-HT5A (Ki)
Assay type: binding
Description: In both assays, different concentrations of the test substances are used and the Ki and IC50 values are determined.

Chain of 5-HT5A (P47898 whole entry): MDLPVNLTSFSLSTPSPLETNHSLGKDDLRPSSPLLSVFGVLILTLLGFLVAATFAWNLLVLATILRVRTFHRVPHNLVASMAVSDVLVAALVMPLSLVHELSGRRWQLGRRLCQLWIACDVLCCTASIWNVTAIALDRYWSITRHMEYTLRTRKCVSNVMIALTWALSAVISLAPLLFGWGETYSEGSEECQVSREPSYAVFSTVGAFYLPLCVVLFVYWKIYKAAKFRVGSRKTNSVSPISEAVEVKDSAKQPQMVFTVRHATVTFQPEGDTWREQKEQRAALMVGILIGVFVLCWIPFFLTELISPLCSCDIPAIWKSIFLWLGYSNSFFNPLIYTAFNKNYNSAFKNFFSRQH

SMILES	Ki
COc1cccc(OC)c1CN1Cc2ccc(-c3ccc(OC(F)(F)F)cc3)cc2N=C1N [Example 87, 3-(2,6-Dimethoxybenzyl)-7-[4-trifluoromethoxy)phenyl]-3,4-dihydroquinazoline-2-aminium acetate]	< 300 nM
NC1=Nc2ccccc2CN1Cc1ccccc1OC(F)(F)F [Example 69, 3-[2-(Trifluoromethoxy)benzyl]-3,4-dihydroquinazolin-2-amine]	< 300 nM
COc1ccccc1CN1Cc2ccc(C(F)(F)F)cc2N=C1N [Example 66, 3-(2-Methoxybenzyl)-7-(trifluoromethyl)-3,4-dihydroquinazolin-2-amine hydrochloride]	< 300 nM
CCCCNC1=Nc2ccccc2CN1Cc1ccccc1OC [Example 76, 2-(Butylamino)-3-(2-methoxybenzyl)-3,4-dihydroquinazoline hydrochloride]	< 10000 nM
COc1ccccc1CN1Cc2ccccc2N=C1NCC(C)C [Example 77, 2-(Isobutylamino)-3-(2-methoxybenzyl)-3,4-dihydroquinazoline acetate]	< 10000 nM
COc1ccccc1CN1Cc2ccccc2N=C1N [Example 64, 3-(2-Methoxybenzyl)-3,4-dihydroquinazolin-2-amine hydrochloride]	< 300 nM
COc1ccccc1CN1Cc2ccccc2N=C1N1CCNCC1 [Example 78, 3-(2-Methoxybenzyl)-2-piperazin-1-yl-3,4-dihydroquinazoline hydrochloride]	< 10000 nM
NC1=Nc2ccccc2CN1Cc1cccc2c1OCC2 [Example 68, 3-(2,3-Dihydro-1-benzofuran-7-ylmethyl)-3,4-dihydroquinazolin-2-amine hydrochloride]	< 300 nM
COc1ccccc1CN1Cc2ccccc2N=C1N1CCN(C)CC1 [Example 79, 3-(2-Methoxybenzyl)-2-(4-methylpiperazin-1-yl)-3,4-dihydroquinazoline fumarate]	< 10000 nM
COc1ccccc1CN1Cc2ccccc2N=C1N1CCN(Cc2ccccc2)CC1 [Example 80, 2-(4-Benzylpiperazin-1-yl)-3-(2-methoxybenzyl)-3,4-dihydroquinazoline fumarate]	< 10000 nM
COc1cccc(OC)c1Cc1cc2ncccc2nc1N [Example 46, 3-(2,6-Dimethoxybenzyl)-1,5-naphthyridin-2-amine]	< 300 nM
COc1cccc(F)c1Cc1cc2cc3c(cc2nc1N)OCO3 [Example 17, 7-(2-Fluoro-6-methoxybenzyl)[1.3]dioxolo[4.5-g]quinolin-6-amine]	< 300 nM
NC1=Nc2ccccc2CN1Cc1ccccc1O [Example 72, 2-[(2-Aminoquinazolin-3(4H)-yl)methyl]phenol]	< 10000 nM
CCOc1ccccc1Cc1cc2ccccc2nc1N [Example 55, 3-(2-Ethoxybenzyl)quinolin-2-amine hydrochloride]	< 300 nM
COc1ccc(CN2Cc3ccccc3N=C2N)c(OC)c1 [Example 70, 3-(2,4-Dimethoxybenzyl)-3,4-dihydroquinazolin-2-amine]	< 10000 nM
COc1cccc(F)c1Cc1cc2cc(F)ccc2nc1N [Example 24, 6-Fluoro-3-(2-fluoro-6-methoxybenzyl)quinolin-2-amine]	< 300 nM
COc1cc2cc(Cc3c(OC)cccc3OC)c(N)nc2cc1OC [Example 13, 3-(2,6-Dimethoxybenzyl)-6,7-dimethoxy-quinolin-2-amine]	< 300 nM
Nc1nc2ccccc2cc1Cc1ccccc1O [Example 25, 2-[(2-Aminoquinolin-3-yl)methyl]phenol]	< 300 nM
COc1cccc(OC)c1CN1Cc2ccccc2N=C1NCc1ccccn1 [Example 94, [3-(2,6-Dimethoxybenzyl)-3,4-dihydroquinazolin-2-yl]pyridin-2-ylmethylamine hydrochloride]	< 10000 nM
CC(C)Oc1cccc(F)c1Cc1cc2ccccc2nc1N [Example 56, 3-(2-Fluoro-6-isopropoxybenzyl)quinolin-2-amine hydrochloride]	< 300 nM
COc1cccc(OC)c1CN1Cc2ccccc2N=C1NCc1cccc2ccccc12 [Example 93, 3-(2,6-Dimethoxybenzyl)-N-(1-naphthylmethyl)-3,4-dihydroquinazolin-2-amine hydrochloride]	< 10000 nM
COc1cccc(OC)c1CN1Cc2ccccc2N=C1NC1CCCCCC1 [Example 92, N-Cycloheptyl-3-(2,6-dimethoxybenzyl)-3,4-dihydroquinazolin-2-amine hydrochloride]	< 300 nM
COc1ccccc1CN1Cc2ccccc2N=C1NCc1cccnc1 [Example 75, 3-(2-Methoxybenzyl)-2-[(pyridin-3-ylmethyl)amino]-3,4-dihydroquinazoline acetate]	< 10000 nM
COc1cccc(OC)c1CN1Cc2ccc(Nc3ccccc3)cc2N=C1N [Example 88, 7-Anilino-3-(2,6-dimethoxybenzyl)-3,4-dihydroquinazolin-2-aminium acetate]	< 300 nM
CN(C)CCOc1cccc(F)c1Cc1cc2ccccc2nc1N [Example 60, 3-{2-[2-(Dimethylamino)ethoxy]-6-fluorobenzyl}quinolin-2-amine bishydrochloride]	< 300 nM
COc1ccccc1CN1Cc2ccccc2N=C1NO [Example 73, 2-(Hydroxyamino)-3-(2-methoxybenzyl)-3,4-dihydroquinazoline]	< 10000 nM
COc1ccccc1CN1Cc2ccccc2N=C1NC1Cc2ccccc2C1 [Example 74, N-(2,3-Dihydro-1H-inden-2-yl)-3-(2-methoxybenzyl)-3,4-dihydroquinazolin-2-amine acetate]	< 300 nM

More lines, now with the values ahead:

Ki	SMILES
< 300 nM	COc1ccccc1Cc1cc2ccc(F)cc2nc1N [Example 39, 7-Fluoro-3-(2-methoxybenzyl)quinolin-2-amine]
< 300 nM	CCOc1ccc2nc(N)c(Cc3ccccc3OC)cc2c1 [Example 31, 6-Ethoxy-3-(2-methoxybenzyl)quinolin-2-amine]
< 300 nM	COc1cccc(OC)c1Cc1cc2cc(F)ccc2nc1N [Example 23, 3-(2,6-Dimethoxybenzyl)-6-fluoroquinolin-2-amine]
< 300 nM	COc1ccccc1Cc1cc2cc(F)ccc2nc1N [Example 18, 6-Fluoro-3-(2-methoxybenzyl)quinolin-2-amine]
< 300 nM	COc1ccccc1Cc1cc2ncccc2nc1N [Example 38, 3-(2-Methoxybenzyl)-1,5-naphthyridin-2-amine]
< 300 nM	COc1ccccc1Cc1cc2c(Cl)cccc2nc1N [Example 19, 5-Chloro-3-(2-methoxybenzyl)quinolin-2-amine]
< 300 nM	COc1ccccc1Cc1cc2cc(Cl)ccc2nc1N [Example 11]
< 300 nM	COc1ccccc1Cc1cc2ccc(N(C)C)cc2nc1N [Example 28, 3-(2-Methoxybenzyl)-N^7,N^7-dimethylquinolin-2,7-diamine]
< 300 nM	COc1ccccc1Cc1cc2ccccc2nc1N [Example 1, 3-(2-Methoxybenzyl)quinolin-2-amine]
< 300 nM	COc1cccc(Cl)c1Cc1cc2ccccc2nc1N [Example 30, 3-(2-Chloro-6-methoxybenzyl)quinolin-2-amine]
< 300 nM	COc1cccc(OC)c1Cc1cc2cnccc2nc1N [Example 22, 3-(2,6-Dimethoxybenzyl)-1,6-naphthyridin-2-amine]
< 300 nM	COc1cccc(F)c1Cc1cc2ccccc2nc1N [Example 29, 3-(2-Fluoro-6-methoxybenzyl)quinolin-2-amine]
< 300 nM	COc1ccccc1Cc1cc2cccc(OC)c2nc1N [Example 51, 8-Methoxy-3-(2-methoxybenzyl)quinolin-2-amine]
< 300 nM	COc1cccc(OC)c1Cc1cc2ccccc2nc1N [Example 3, 3-(2,6-Dimethoxybenzyl)quinolin-2-amine]
< 300 nM	COc1ccccc1Cc1cc2cnccc2nc1N [Example 33, 3-(2-Methoxybenzyl)-1,6-naphthyridin-2-amine]
< 300 nM	CC(C)Oc1ccccc1Cc1cc2ccccc2nc1N [Example 54, 3-(2-Isopropoxybenzyl)quinolin-2-amine hydrochloride]
